Assay results from ChEMBL document CHEMBL1201862, “PubChem BioAssay data set” (2004).
The source made the active and inactive calls.

What was measured:
Caspase-3 = target: T1, Caspase-3 (Homo sapiens, UniProt P42574); type: functional;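 note: Dose-response selectivity test against caspase-3 for candidate inhibitors of sentrin-specific proteases (SENPs)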
T1 sequence (P42574 whole entry): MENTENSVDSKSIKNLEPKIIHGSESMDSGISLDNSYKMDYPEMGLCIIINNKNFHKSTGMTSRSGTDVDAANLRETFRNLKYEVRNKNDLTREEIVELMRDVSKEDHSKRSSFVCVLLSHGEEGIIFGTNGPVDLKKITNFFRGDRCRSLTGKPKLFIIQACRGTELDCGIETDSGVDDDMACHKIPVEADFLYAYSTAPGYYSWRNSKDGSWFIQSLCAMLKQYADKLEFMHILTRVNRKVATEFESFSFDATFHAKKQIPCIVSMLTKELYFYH

INS1 = assay: beta cell apoptosis inhibitors, cytokine rescue, dose response, luminescence, retest (AID 449756); type: functional, cell-based; details: Rattus norvegicus;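 note: cell death triggered by IL-1 beta plus TNF-alpha plus IFN-gamma mixture; protective hits raise ATP signal compared with cytokine alone wells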
Fatty acid synthase [1] = target: T2, Fatty acid synthase (Homo sapiens, UniProt P49327); assay: FAS thioesterase domain inhibitors, dose response, biochemical, kinetic fluorescence intensity (AID 624326); type: functional;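 note: rate of fluorescence rise from hydrolysis of a fluorogenic O-methyl fluorescein ester substrate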
T2 sequence (P49327 whole entry, the tested form may be a part): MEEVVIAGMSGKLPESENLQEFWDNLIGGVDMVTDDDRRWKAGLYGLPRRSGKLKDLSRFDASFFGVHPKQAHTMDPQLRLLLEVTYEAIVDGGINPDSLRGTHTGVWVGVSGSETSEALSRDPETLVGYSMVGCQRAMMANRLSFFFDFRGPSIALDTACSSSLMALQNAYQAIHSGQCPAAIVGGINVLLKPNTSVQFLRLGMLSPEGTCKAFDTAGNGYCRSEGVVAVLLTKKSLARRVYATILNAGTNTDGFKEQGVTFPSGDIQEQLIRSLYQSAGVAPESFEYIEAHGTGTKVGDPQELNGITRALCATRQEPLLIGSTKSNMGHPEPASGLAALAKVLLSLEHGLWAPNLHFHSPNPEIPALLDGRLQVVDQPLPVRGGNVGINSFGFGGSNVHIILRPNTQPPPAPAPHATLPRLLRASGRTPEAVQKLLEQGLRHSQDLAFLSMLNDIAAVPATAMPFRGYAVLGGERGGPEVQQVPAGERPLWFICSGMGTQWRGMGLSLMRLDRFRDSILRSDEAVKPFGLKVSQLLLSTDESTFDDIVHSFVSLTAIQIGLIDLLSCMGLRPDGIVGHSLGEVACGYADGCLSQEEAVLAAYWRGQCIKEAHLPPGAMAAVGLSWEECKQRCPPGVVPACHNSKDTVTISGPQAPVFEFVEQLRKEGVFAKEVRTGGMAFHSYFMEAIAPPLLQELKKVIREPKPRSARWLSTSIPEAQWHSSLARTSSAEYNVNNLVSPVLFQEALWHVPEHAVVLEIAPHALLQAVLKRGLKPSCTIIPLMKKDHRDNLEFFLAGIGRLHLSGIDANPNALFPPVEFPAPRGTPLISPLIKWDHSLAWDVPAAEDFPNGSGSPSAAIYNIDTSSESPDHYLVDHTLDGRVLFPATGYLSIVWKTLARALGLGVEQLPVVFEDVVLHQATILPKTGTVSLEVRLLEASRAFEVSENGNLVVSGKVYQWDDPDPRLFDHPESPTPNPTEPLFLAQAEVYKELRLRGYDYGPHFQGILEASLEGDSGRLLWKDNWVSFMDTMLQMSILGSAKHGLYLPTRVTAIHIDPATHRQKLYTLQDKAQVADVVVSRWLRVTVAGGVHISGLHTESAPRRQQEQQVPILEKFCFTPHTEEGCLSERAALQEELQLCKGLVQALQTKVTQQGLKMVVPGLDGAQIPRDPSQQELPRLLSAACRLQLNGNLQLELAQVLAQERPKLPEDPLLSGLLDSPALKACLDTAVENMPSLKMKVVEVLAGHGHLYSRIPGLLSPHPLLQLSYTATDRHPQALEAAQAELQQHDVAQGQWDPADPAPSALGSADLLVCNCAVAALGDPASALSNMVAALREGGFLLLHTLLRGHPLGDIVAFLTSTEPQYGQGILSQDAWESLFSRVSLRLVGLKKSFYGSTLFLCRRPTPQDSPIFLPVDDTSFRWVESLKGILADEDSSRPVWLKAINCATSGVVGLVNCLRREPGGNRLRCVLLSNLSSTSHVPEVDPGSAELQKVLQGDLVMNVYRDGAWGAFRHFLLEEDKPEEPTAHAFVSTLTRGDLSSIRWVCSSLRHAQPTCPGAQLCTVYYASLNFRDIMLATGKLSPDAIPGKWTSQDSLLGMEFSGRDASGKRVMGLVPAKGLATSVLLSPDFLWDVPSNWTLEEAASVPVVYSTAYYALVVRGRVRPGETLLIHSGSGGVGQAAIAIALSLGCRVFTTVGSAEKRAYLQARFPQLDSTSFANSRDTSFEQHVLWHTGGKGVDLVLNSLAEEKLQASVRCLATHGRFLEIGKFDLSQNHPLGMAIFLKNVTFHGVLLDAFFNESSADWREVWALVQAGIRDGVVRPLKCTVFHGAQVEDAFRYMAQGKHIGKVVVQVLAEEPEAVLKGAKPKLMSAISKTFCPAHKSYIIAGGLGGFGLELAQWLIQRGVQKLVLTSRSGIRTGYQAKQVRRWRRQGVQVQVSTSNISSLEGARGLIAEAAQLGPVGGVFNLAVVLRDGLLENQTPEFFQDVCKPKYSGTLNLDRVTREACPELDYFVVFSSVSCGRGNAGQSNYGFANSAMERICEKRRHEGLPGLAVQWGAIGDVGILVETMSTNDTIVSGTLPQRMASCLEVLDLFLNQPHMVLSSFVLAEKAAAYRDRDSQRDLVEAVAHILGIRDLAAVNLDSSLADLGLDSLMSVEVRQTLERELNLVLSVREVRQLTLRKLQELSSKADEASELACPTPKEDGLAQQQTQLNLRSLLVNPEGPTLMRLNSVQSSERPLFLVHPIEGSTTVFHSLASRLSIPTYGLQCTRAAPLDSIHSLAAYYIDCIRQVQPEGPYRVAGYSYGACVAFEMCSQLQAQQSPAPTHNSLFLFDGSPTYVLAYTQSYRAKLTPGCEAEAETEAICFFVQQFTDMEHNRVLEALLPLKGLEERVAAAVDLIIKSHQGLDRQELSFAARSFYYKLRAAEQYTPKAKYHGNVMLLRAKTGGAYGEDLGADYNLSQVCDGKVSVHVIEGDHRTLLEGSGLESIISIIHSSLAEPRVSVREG

[2] = target: T3, Sentrin-specific protease 6 (Homo sapiens, UniProt Q9GZR1); type: functional;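 note: Luminescence-based dose-response confirmatory assay of SENP6 inhibition, following up an ultra-high-throughput screen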
T3 sequence (Q9GZR1 whole entry): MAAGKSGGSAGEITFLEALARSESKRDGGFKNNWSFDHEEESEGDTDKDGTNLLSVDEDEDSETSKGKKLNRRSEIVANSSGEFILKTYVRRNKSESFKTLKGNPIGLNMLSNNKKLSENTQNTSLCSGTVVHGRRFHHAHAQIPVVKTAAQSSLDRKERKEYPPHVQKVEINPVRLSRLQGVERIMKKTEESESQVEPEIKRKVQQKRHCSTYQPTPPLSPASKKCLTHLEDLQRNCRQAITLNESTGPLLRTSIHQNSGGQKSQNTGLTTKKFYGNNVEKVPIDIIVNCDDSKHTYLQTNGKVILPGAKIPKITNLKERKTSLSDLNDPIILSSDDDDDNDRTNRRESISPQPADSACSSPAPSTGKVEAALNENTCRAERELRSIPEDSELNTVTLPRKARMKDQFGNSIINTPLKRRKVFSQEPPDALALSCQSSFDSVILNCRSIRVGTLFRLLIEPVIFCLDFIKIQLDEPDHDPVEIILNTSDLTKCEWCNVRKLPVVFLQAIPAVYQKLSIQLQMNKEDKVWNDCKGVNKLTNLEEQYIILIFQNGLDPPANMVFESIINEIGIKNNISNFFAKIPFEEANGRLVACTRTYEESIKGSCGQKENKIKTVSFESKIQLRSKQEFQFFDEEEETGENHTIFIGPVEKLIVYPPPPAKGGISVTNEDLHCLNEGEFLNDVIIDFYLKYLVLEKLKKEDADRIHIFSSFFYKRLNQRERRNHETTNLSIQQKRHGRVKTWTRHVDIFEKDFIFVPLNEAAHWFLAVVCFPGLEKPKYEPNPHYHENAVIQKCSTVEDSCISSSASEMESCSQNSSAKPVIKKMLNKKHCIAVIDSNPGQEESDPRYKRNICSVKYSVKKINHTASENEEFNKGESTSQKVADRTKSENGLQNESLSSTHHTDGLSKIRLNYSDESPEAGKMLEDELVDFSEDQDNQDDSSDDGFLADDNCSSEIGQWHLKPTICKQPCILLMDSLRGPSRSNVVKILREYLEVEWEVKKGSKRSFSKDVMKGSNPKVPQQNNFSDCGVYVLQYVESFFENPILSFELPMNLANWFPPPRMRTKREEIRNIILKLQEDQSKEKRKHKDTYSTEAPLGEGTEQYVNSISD

[3] = target: T4, Sentrin-specific protease 7 (Homo sapiens, UniProt Q9BQF6); type: functional;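 note: Luminescence-based dose-response confirmation of ultra-high-throughput screening hits, measuring inhibition of SENP7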
T4 sequence (Q9BQF6 whole entry): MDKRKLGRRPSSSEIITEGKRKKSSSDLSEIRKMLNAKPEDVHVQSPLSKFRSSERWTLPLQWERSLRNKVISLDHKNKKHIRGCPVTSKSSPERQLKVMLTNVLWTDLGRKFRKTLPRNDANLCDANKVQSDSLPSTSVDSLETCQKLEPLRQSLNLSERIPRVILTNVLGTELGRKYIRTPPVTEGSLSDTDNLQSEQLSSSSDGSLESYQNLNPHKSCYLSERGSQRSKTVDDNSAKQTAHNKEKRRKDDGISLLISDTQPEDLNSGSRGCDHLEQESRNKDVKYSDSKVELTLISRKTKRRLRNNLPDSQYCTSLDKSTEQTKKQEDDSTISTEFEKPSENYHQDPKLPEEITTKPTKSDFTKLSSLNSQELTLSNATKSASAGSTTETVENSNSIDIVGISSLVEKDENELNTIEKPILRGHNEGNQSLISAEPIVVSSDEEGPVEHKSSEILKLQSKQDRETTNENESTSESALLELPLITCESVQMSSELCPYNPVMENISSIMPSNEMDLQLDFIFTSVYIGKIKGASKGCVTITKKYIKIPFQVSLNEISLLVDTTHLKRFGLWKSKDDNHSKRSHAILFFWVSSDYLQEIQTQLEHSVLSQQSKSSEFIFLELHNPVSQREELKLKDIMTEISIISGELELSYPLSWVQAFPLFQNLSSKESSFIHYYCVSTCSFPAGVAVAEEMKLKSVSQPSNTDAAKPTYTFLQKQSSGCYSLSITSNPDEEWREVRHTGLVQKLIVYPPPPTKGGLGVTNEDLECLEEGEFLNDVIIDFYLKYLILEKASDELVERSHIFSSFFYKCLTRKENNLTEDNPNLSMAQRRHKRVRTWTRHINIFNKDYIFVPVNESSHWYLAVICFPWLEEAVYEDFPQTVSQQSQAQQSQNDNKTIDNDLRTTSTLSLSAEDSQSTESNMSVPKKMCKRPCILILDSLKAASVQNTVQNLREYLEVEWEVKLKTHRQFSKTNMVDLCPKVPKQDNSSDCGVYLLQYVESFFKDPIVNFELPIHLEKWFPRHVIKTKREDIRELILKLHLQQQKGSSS

[4] = cytotoxicity in MIN6 insulinoma cells, dose response, cytotoxicity control, cell-based, mouse insulinoma (AID 2122); type: functional;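 note: confirmatory high-throughput counterscreen run to flag cytotoxic compounds; mouse MIN-6 beta cells carrying an insulin promoter eGFP reporter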
[5] = insulin promoter down-regulators in MIN6 cells, imaging, high-content screening, mouse beta cells (AID 1628); type: functional
[6] = target: T5, Sentrin-specific protease 8 (Homo sapiens, UniProt Q96LD8); type: functional;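 note: luminescence read-out of SENP8 inhibition, dose-response confirmation following an ultra-high-throughput screen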
T5 sequence (Q96LD8 whole entry): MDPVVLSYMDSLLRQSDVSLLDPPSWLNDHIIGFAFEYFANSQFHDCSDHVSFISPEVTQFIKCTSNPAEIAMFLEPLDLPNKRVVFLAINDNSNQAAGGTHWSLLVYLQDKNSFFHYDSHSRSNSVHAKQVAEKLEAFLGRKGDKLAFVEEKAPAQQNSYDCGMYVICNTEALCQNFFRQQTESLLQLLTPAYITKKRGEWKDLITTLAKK

Fatty acid synthase [7] = target: T2, Fatty acid synthase; assay: FAS thioesterase domain inhibitors, dose response, biochemical, endpoint fluorescence intensity, uHTS hits (AID 624327); type: functional;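 note: fluorescence from hydrolysis of an O-methyl fluorescein acyl ester substrate by the enzyme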
HEK293 = assay: cells; type: functional, cell-based; details: Homo sapiens
[8] = target: Nuclear receptor subfamily 0 group B member 1 (Homo sapiens, UniProt P51843); assay: Luminescence-based cell-based high throughput dose response assay for inhibitors of the orphan nuclear receptor subfamily 0, group B, member 1 (DAX1; NR0B1). [Related pubchem assays (depositor defined):AID504766, AID504790]; type: functional
Chain of Nuclear receptor subfamily 0 group B member 1 (P51843 whole entry): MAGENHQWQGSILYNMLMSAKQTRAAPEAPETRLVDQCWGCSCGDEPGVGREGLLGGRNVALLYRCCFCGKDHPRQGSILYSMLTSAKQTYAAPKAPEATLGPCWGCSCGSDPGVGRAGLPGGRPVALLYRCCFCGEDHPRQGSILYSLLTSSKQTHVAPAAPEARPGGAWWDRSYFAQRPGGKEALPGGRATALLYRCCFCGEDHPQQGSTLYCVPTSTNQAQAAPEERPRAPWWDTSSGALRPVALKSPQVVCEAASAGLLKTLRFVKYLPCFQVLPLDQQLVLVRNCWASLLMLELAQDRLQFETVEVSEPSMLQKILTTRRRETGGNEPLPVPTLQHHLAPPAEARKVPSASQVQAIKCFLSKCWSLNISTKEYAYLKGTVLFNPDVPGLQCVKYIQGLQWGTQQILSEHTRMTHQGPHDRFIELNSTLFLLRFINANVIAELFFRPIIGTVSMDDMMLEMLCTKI

[9] = inhibitors of PGC1a acetylation in cells, dose response, cell-based, cherry-picked samples (AID 720514); type: functional;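 note: potency may reflect raised or lowered acetylation signal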
A-375 = assay: MITF: Counter assay: A375 proliferation Measured in Cell-Based System Using Plate Reader - 2084-03_Inhibitor_Dose_DryPowder_Activity. [Related pubchem assays (depositor defined):AID488944]; type: functional; details: Homo sapiens
[10] = target: T6, Microphthalmia-associated transcription factor (Homo sapiens, UniProt O75030); assay: TRPM1 promoter luciferase signal decrease, dose response, MITF inhibitor project, cell-based, SK-MEL-5, cherry-picked, set 3 (AID 493073); type: functional
T6 sequence (O75030 whole entry): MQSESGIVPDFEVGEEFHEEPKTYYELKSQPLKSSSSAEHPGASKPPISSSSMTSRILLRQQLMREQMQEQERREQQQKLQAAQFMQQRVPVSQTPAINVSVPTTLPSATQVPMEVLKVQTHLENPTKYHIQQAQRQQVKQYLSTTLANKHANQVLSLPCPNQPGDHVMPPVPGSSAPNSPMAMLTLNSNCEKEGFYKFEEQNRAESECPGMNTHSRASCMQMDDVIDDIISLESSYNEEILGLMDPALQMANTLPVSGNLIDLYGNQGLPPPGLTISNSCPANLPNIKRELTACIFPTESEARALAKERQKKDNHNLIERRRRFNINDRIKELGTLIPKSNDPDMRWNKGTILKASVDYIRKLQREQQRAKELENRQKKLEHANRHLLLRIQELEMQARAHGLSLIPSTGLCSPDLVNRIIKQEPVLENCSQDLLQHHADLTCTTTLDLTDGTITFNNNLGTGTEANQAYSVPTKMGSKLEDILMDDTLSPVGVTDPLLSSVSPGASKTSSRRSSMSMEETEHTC

Structure (SMILES): O=C(Nc1ccc(OC(F)(F)F)cc1)Nc1cccc([N+](=O)[O-])c1
- IC50 (Caspase-3): 89.9 µM (active)
- AC50 (INS1): 2.8 µM (active)
- IC50 (Fatty acid synthase [1]): 6.14 µM (active)
- IC50 [2]: > 100 µM (inactive)
- IC50 [3]: 8.57 µM (active)
- IC50 [4]: 1.27 µM (active)
- IC50 [5]: 1.42 µM (active)
- IC50 [6]: > 100 µM (inactive)
- IC50 (Fatty acid synthase [7]): 6.74 µM (active)

Structure (SMILES): CCCCN(C(C)=O)C1CC(=O)N(c2ccc(OCCC)cc2)C1=O (centres undefined)
- IC50 (HEK293): > 67.5 µM (inactive)
- IC50 [8]: > 67.5 µM (inactive)

Structure (SMILES): Cc1cccc(NC(=O)CNC(=O)Cn2ncc(Cl)c(Cl)c2=O)c1C
- AC50 [9]: 6.82 µM (active)
- AC50 (A-375): 20.5 µM (active)
- AC50 [10]: 13.4 µM (active)
